Here are results for two molecules from patent US12194043B2, “Uridine phosphorylase inhibitors to treat or prevent pulmonary disease” (Tosk, Inc., priority 2020, dated 2025).

Molecules are shown by their SMILES. “Also recorded” adds a separate entry of the source.

Series [1] has as its system C57BL/6 male mice treated with bleomycin (pulmonary fibrosis). Nature of the series: Bleomycin/pulmonary fibrosis study, lung histology (Masson's trichrome, Ashcroft fibrosis grading). The format is in vivo. The note with it: bleomycin OA day 0, 60 mg/kg IP BID days 7 through 20; for statistical significance of the decrease in fibrosis vs dosing vehicle: SPSS version 20. An excerpt:
FIG. 2. Figure is a chart providing histology scores for pulmonary tissue from mice treated with bleomycin (a well characterized lung toxin) and either dosing vehicle, UR, or TK-112690.
Thirty-three C57BL/6 male mice, 10-14 weeks at study initiation, were acclimatized for least 3 days. The mouse has been selected as is referenced in the literature as a representative species of choice for this experimental animal model. During acclimation and throughout the entire study duration, animals were housed within a limited access rodent facility and kept in groups of a maximum of 4 mice per cage. Mice were housed in polypropylene cages with solid bottoms and wood shavings or corn Cobb as bedding material. Animals were provided ad libitum with a commercial rodent diet and had free access to drinking water that is supplied to each cage via polyethylene bottles. The automatically controlled environmental conditions was set to maintain temperature at 20-26° C. with a relative humidity (RH) of 30-70%, a 12:12 hour light: dark cycle, and 10-15 air changes/hour in the study room. Animals were given a unique animal identification tail mark as a means of identification. This number also appeared on a cage card, which is visible on the front of each cage. The cage card also contains the study and group numbers, route of administration, gender, study director and arrival date.
Animals were randomly assigned to cages on arrival. Animals were assigned to treatment groups prior to treatment initiation. At study termination, surviving animals were weighed prior to euthanasia. Euthanasia was performed via anesthesia overdose and exsanguination.
The table below lists the experimental group(s) comprising the study.
Disease Induction. 75 uL of Bleomycin (section 4.5.) was administered on day 0 via oropharyngeal aspiration (O.A.). The mice were anesthetized via isoflurane/oxygen and suspended by their cranial incisors on a thin wire from an angled stand. The tongue was be gently held from the mouth using blunt forceps to visualize the base of the tongue and the pharynx. Bleomycin/saline suspension was pipetted onto posterior pharynx. Nostrils will be held gently closed. Respiration was monitored to ensure the suspension is fully aspirated.
Treatment. Groups 3 and 4 were treated via intraperitoneal (IP) injection at a dosing volume of 10 ml/kg twice daily, 6-8 hours between doses, from days 7 through 20.
Observations and Examinations. […]
Histology. […] Disease severity and collagen levels were assessed by the Ashcroft fibrosis grading system.
The resulting data were analyzed by SPSS, version 20.

For series [2] the following is noted: cited: Deng et al., Science 2017; cited from earlier work.
The test system of another series is plasma UR. Nature of the series: Plasma UR concentration versus plasma Compound 1 concentration after continuous infusion via sc implanted osmotic pumps. The format is in vivo. As to conditions: BDF-1 male mice; for effect on plasma UR: constant-rate sc infusion 667, 833 or 3000 mg/kg/day, plasma at 72 h or 24 h. The protocol: Solutions of Compound I were prepared at a concentration of 500 mg/mL in sterile PBS. Osmotic pumps (ALZET® micro-osmotic pump 2001D and 1003D, Alza Co) were loaded with 200 μL (2001D osmotic pump) and/or 100 μL (1003D osmotic pump) of TK-112690 solution.
BDF-1 male mice (n=6) were treated with a constant-rate infusion of 667, 833 or 3000 mg/kg/day doses of Compound I delivered via subcutaneously implanted osmotic pumps. Animals were anesthetized with 100 mg/kg ketamine prior to pump implantation. Surgical scissors were used to make an approximately 1 cm incision on the dorsal surface near the shoulder blade of animals. A hemostat was used to carve out a subcutaneous tunnel toward the anterior end of animal. Osmotic pumps were placed inside the subcutaneous tunnel. Incision was sealed with wound clips.
Blood collections were performed on animals anesthetized with ketamine (ip 100 mg/kg). Blood samples from animals treated with a constant-rate infusion of TK-112690 were collected at 72 hours for 667 mg/kg/day and 833 mg/kg/day and 24 hours for 3000 mg/kg/day after pump implantation. Whole blood (˜0.8 mL) was drawn through the retro-orbital sinus using a heparin coated micro-hematocrit tube and collected into an EDTA microtainer tube. Blood samples were transferred into fresh 1.5 mL microcentrifuge tubes and centrifuged for 10 minutes at 14,000×g using an Eppendorf Minispin Plus stored in a 4° C. refrigerator. Exactly 0.4 mL of plasma was transferred into fresh microcentrifuge tubes containing 2 μL of 10 mM 5-FU and vortexed at highest setting for approximately 5 seconds. The final 50 μM concentration of 5-FU served as an internal standard. Animals were sacrificed by cervical dislocation and properly disposed.
Blood samples from animals treated with a constant-rate infusion of compound I were collected at 72 hours for 667 mg/kg/day and 833 mg/kg/day and 24 hours for 3000 mg/kg/day after pump implantation. […]
A solid-phase extraction (SPE) of analytes (UR, Compound I and 5-FU) from plasma was conducted before HPLC analysis. […] Samples were transferred into fresh HPLC vials and analyzed. […]

Series [3] is described as follows: Elimination t1/2 of Compound 1 in mice. As to conditions: mouse, in vivo.

Consider `O=c1ccn([C@@H]2O[C@H](CO)[C@@H](O)[C@H]2O)c(=O)[nH]1` [UR, uridine], for which, in series [1], the “less fibrosis (histology score) than mice treated with the dosing vehicle” value worked out at 7% and the “statistical significance of the decrease in fibrosis vs dosing vehicle” value is “not statistically significant”. The “elimination t1/2” value in series [2] is on record as “only a few minutes”.

Take `Cc1cn2c(nc1=O)O[C@H]1[C@H](O)[C@@H](CO)O[C@H]12` [Compound 1]: the “effect on plasma UR” value is “elevate plasma UR in a linear fashion” in the series on plasma UR and “elevate plasma UR in a linear fashion; also recorded: associated with higher levels of UR” with plasma UR (listed as TK-112690). Also, in the series with plasma UR (continuous infusion of various amounts), the “slope of regression line, plasma UR concentration vs plasma Compound 1 concentration” value amounted to 0.010. Further, the “less fibrosis (histology score) than mice treated with the dosing vehicle” value in series [1] was 30%. The “statistical significance of the decrease in fibrosis vs dosing vehicle” value in series [1] is on record as “statistically significant”. The same molecule had a half-life in series [3] of 1 to 2 h.

By half-life is commonly meant how long it takes for the measured level to halve.
